In assay [1] the test system is Cys-LTs production in rat mast cell like cell line RBL-2H3. Put plainly: Calcium ionophore-induced Cys-LTs production system using RBL-2H3. The conditions noted are these: 1 h, RBL-2H3, A23187 5 μM, one hour. The format is cell-based. As to the method:
(§1) For the evaluation by LTB4 and Cys-LTs production inhibiting activity, the calcium ionophore-induced LTB4 and Cys-LTs production system using the rat mast cell like cell line RBL-2H3 with reference to the method of Ishiwara et al. (see Ishiwara M. et al., J Pharmacol Exp Ther 307: 583, 2003) was used. That is, rat mast cell like cell line RBL-2H3 cells were suspended in Dulbecco's modified Eagle's medium (Nacalai Tesque) containing 10% bovine fetal serum (BioWhittaker) and 10 μg/ml gentamycin (Invitrogen). The infiltrating cell suspension 200 μl containing 1×10^5 cells per well was inoculated to 96-well culture plate and cultured over night under conditions of 5% CO2 and 37° C. The culture supernatant was removed, then the test compound solution or solvent 50 μl was added. After 30 minutes preculture, calcium ionophore (A23187) was added to a final concentration of 5 μM to induce leukotriene production.
(§2) One hour after calcium ionophore stimulus, the culture supernatant was recovered and the amounts of LTB4 and Cys-LTs in the supernatant were measured using an EIA kit (made by Amersham). Based on the measurement values, the test compound concentrations suppressing 50% of the mediator production at the time of non-addition of a compound (IC50 value) were calculated.

Assay [2] has as its system TPA-induced mouse dermatitis model. Put plainly: TPA-induced mouse dermatitis model (ear thickness). The format is in vivo. The conditions noted are these: 50 mg/kg orally 30 minutes before TPA, 6 hours after TPA, C57BL/6 mice. As to the method:
Phorbol ester (TPA) was applied to the ear to elicite acute inflammation having ear edema as a main symptom. In the present test model, it is known that arachidonic acid metabolites, constituting various lipid mediators, are involved in inflammation. By this Experiment, it is possible to evaluate the anti-inflammatory action in vivo of anti-inflammatory drugs acting on the arachidonic acid cascade.
The Experiment was performed with reference to the method of Chang et al. (see Chang J., Eur J Pharmacol 142: 197, 1987). That is, the ear of female C57BL/6 mice (Charles River Japan) were painted with 20 μl of TPA in an acetone solution (concentration 50 μg/ml) to induce dermatitis at the ear. The ear thicknesses before application of TPA and 6 hours after application of TPA were measured using a dial gauge and the increase in ear thickness caused by inflammation was calculated. The test compound or the 0.5% hydroxypropyl cellulose solution as vehicle was administered orally to the mice 30 minutes before application of TPA. Note that the number of mice used in the test was made six per group.
Based on the measurement value, the action of each test compound in suppressing the increase in ear thickness due to application of TPA was evaluated.

Assay [3] relates to PGD2 production in rat mast cell like cell line RBL-2H3. Put plainly: Antigen-induced PGD2 production system using RBL-2H3 sensitized by DNP specific IgE. The format is cell-based. The note with it: 0.5 h, RBL-2H3, anti-DNP-IgE sensitized, antigen 10 μg/ml, 30 minutes. The protocol:
To evaluate the PGD2 production inhibiting activity, the antigen-induced PGD2 production system using rat mast cell like cell line RBL-2H3 sensitized by a dinitrophenol (DNP) specific IgE with reference to the method of Yamashita et al. (see Yamashita, M. et al., Br J Pharmacol 129: 367, 2000) was used. That is, rat mast cell like cell line RBL-2H3 cells were suspended in a Dulbecco's modified Eagle's medium (Nacalai Tesque) containing 10% bovine fetal serum (BioWhittaker) and 10 μg/ml gentamycin (Invitrogen). The infiltrating cell suspension 200 μl containing 1×10^5 cells per well was inoculated to 96-well culture plate and cultured over night under conditions of 5% CO2 and 37° C. The culture supernatant was removed, then the suspension was cultured for 2 hours in the presence of an anti-DNP-IgE antibody (1 μg/ml) for 2 hours to sensitize it. After the sensitization, the supernatant was removed and the test compound solution or solvent was added. The resultant product was precultured for 30 minutes, then 10 μg/ml of antigen (DNP-human serum albumin conjugate) was added to elicite PGD2 production.
30 minutes after antigen stimulus, the culture supernatant was recovered and the amount of PGD2 in the supernatant was measured using an EIA kit (made by Cayman). Based on the measurement value, the test compound concentration (IC50 value) suppressing the amount of PGD2 production at the time of nonaddition of the compound by 50% was calculated.

Assay [4] has as its target T1, cPLA2 crudely purified from the cytoplasm fraction of U937 (Homo sapiens, UniProt P47712).
T1 construct: cPLA2 crudely purified from the cytoplasm fraction of U937; endogenous in cells; host or cells: U937 cells (cytoplasm fraction, crude purification)
T1 sequence (P47712 1-749): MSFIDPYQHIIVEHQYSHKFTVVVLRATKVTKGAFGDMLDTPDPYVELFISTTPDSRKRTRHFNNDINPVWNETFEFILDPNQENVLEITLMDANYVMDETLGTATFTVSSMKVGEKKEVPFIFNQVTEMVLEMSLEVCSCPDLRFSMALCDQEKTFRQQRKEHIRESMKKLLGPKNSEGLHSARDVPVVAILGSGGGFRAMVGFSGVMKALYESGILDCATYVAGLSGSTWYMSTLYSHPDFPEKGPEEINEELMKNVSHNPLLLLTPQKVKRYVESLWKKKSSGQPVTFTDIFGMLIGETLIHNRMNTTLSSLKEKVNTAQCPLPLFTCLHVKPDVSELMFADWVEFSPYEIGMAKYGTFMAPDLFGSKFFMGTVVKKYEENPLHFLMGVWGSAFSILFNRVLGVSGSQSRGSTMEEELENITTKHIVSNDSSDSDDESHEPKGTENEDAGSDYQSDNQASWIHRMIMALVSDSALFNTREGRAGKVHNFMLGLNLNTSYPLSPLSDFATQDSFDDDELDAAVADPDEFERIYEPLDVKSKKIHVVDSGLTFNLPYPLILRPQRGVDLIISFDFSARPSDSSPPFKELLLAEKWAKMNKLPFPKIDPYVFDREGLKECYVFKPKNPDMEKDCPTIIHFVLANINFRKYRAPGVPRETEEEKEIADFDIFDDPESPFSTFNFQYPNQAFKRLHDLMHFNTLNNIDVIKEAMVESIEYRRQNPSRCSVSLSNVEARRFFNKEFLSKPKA
Put plainly: Measurement of cPLA2 inhibitory activity (release of [14C]-arachidonic acid from phosphatidyl choline liposome). Type of assay: biochemical. The conditions noted are these: cPLA2 from U937 cytoplasm fraction, [14C]arachidonyl-phosphatidyl choline liposome, 37° C., 60 minutes; read-out: cPLA2 inhibitory activity, 50% inhibiting concentration IC50. In a few lines:
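The read-out is radioactivity from extracted [14C]-arachidonic acid, freed over 60 min at 37° C from liposomes of 14C-arachidonyl phosphatidylcholine (10 μM PC in the added solution). Buffer was 50 mM HEPES pH 7.5 with Ca2+, DTT, NaCl and BSA. IC50 was derived from inhibition relative to enzyme control minus no-enzyme control.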

Assay [5] has as its system LTB4 production in rat mast cell like cell line RBL-2H3. Put plainly: Calcium ionophore-induced LTB4 production system using RBL-2H3. Type of assay: cell-based. The note with it: 1 h, RBL-2H3, A23187 5 μM, one hour. As to the method:
as §1, §2

Assay [6] has as its system PGE2 production in mouse peritoneal exudate cells. Put plainly: LPS-induced PGE2 production system using mouse peritoneal exudate cells. Type of assay: cell-based. The conditions noted are these: LPS 10 μg/ml, 6 hours. The protocol: For evaluation of the PGE2 production inhibiting activity, the lipopolysaccharide (LPS)-induced PGE2 production system using mouse peritoneal exudate cells with reference to the method of Kim et al. (see Kim, Y K et al., Biol Pharm Bull 25: 472, 2002) was used. That is, 2 ml of thioglycolate solution (made by Sigma, Brewer's Thioglycorate medium) per mice were intraperitoneally administered to 8-week old female C3H/HeN mice (Charles River Japan). After 4 days, a phosphate buffer saline (PBS) 5 ml was used to wash the abdominal cavity and the infiltrating cells were recovered. The recovered cells were suspended in a predetermined concentration in an RPMI1640 medium (Nacalai Tesque) containing 10% bovine fetal serum (BioWhittaker) and 10 μg/ml gentamycin (Invitrogen).
The infiltrating cell suspension 100 μl containing 2×10^5 cells per well was inoculated in a 96-well culture plate, then the test compound solution or solvent 50 μl was added. Under conditions of 5% CO2 and 37° C., this was precultured for 15 minutes, then LPS (made by Sigma: L-4524) solution 50 μl (final concentration of LPS of 10 μg/ml) was added, and the mixture was cultured for a further 6 hours. After the end of the culture, the culture supernatant was recovered and the PGE2 concentration in the supernatant was measured using an EIA kit (made by Amersham). Based on the measurement value, the test compound concentration suppressing 50% of the PGE2 production at the time of non-addition of a compound (IC50 value) was calculated.

Structures can show the parent of a compound that is named as a salt.

`O=C(O)CCc1ccc2c(c1)c(CCc1ccccc1)cn2-c1ccc(OC(F)(F)F)cc1` [Example 193, 3-{3-(2-phenylethyl)-1-[4-(trifluoromethoxy)phenyl]-1H-indol-5-yl}propanoic acid 2-amino-2-(hydroxymethyl)propane-1,3-diol salt (1:1)]: the IC50 came to 1380 nM in assay [1], 820 nM in assay [3], 141 nM in assay [4] and 630 nM in assay [5]. In assay [2], the “Suppression rate of increase in ear thickness” value is 19.4%.
For the molecule `CN(C)c1ccc(-n2cc(CCc3ccccc3)c3cc(CCC(=O)O)ccc32)nc1` [Example 138, 3-{1-[5-(dimethylamino)-2-pyridinyl]-3-(2-phenylethyl)-1H-indol-5-yl}propanoic acid hydrochloride], the IC50 was 34 nM in assay [4] and 580 nM in assay [6].
The matching figures for `CCOc1ccc(-n2cc(CCc3ccccc3)c3cc(CCC(=O)C(F)(F)F)ccc32)cc1` [Example 114, 4-[1-(4-ethoxyphenyl)-3-(2-phenylethyl)-1H-indol-5-yl]-1,1,1-trifluorobutan-2-one]: 740 nM and 2220 nM.
Turning to `O=C(O)CCc1ccc2c(c1)c(CCc1ccccc1)cn2-c1ccc(OCc2ccccc2)cc1` [Example 124, 3-{1-[4-(benzyloxy)phenyl]-3-(2-phenylethyl)-1H-indol-5-yl}propanoic acid 2-amino-2-(hydroxymethyl)propane-1,3-diol salt (1:1)], the IC50 in assay [4] stood at 8 nM; in assay [6] it was 130 nM.
In the same order, the values of `CCOc1ccc(-n2cc(CCc3ccccc3)c3cc(CCC(=O)NC#N)ccc32)cc1` [Example 115, N-cyano-3-[1-(4-ethoxyphenyl)-3-(2-phenylethyl)-1H-indol-5-yl]propanamide] are 61 nM and 300 nM.

(Values after US8293781B2, “Indole derivatives having cPLA2 inhibiting activity and applications and production methods of the same” (Daiichi Sankyo Company, Limited, priority 2007, dated 2012).)
